Data published in article PMC4946998 (Journal of cellular physiology, 2016).
Like-named read-outs stand apart in the source and are kept apart here.

How the values were obtained:
MMP-9 = MMP-9 (Homo sapiens, UniProt P14780); conditions: read-out: IC50 MMP-9; average of three determinations, SD <10%
MMP-3 = MMP-3 (Homo sapiens, UniProt P08254); conditions: read-out: IC50 MMP-3; average of three determinations, SD <10%
[1] = tested on: IL-1β, IL-6, CXCL1, MMPs -1,-3,-9,-13 mRNA transcripts
MMP-1 = MMP-1 (Homo sapiens, UniProt P03956); conditions: read-out: IC50 MMP-1; average of three determinations, SD <10%
MMP-14 cd = MMP-14 cd (Homo sapiens, UniProt P50281); conditions: read-out: IC50 MMP-14; average of three determinations, SD <10%
MMP-2 = MMP-2 (Homo sapiens, UniProt P08253); conditions: read-out: IC50 MMP-2; average of three determinations, SD <10%
corneal opacity [2] = conditions: CM
MMP-8 = MMP-8 (Homo sapiens, UniProt P22894); conditions: read-out: IC50 MMP-8; average of three determinations, SD <10%
[3] = tested on: inflammatory cytokines and MMPs in the cornea; conditions: naïve WT mice, CAM12 IP QD for 5 days versus PBS; data not shown
[4] = tested on: corneal epithelial defect; conditions: CM; for wound healing: day 5
[5] = tested on: MMP-1 immunoreactivity; Gr-1+ cells; conditions: WT mice, CM, topical Dex; not in MMP-8KO mice
corneal opacity [6] = conditions: WT, CM, 2D post injury; ref Bian et al., 2016; cited from earlier work

MMP-1, sequence (P03956 100-469): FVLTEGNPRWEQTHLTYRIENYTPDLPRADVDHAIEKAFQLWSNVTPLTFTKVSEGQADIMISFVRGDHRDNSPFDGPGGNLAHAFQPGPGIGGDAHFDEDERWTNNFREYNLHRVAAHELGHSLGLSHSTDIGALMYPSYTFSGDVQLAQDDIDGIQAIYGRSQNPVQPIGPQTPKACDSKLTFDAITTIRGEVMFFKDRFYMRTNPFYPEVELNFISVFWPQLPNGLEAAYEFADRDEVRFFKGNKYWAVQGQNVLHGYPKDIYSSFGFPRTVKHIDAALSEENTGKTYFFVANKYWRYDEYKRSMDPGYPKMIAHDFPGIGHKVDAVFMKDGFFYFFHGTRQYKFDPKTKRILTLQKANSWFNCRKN
MMP-2, sequence (P08253 110-660): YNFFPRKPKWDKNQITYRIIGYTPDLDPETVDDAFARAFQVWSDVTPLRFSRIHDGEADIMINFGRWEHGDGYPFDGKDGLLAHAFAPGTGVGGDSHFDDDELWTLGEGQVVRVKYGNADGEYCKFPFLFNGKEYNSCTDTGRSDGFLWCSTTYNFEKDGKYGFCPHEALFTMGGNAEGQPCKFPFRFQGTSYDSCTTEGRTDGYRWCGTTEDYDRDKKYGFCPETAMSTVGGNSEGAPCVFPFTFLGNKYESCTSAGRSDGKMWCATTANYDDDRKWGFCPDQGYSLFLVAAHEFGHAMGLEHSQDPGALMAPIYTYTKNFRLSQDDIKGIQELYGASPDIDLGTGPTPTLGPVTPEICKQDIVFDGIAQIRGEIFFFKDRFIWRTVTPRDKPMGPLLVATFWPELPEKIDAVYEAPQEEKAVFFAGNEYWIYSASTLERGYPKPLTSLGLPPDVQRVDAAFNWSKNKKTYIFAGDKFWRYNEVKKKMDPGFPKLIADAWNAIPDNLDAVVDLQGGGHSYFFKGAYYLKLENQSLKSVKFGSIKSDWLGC
MMP-9, sequence (P14780 107-707 limits assumed): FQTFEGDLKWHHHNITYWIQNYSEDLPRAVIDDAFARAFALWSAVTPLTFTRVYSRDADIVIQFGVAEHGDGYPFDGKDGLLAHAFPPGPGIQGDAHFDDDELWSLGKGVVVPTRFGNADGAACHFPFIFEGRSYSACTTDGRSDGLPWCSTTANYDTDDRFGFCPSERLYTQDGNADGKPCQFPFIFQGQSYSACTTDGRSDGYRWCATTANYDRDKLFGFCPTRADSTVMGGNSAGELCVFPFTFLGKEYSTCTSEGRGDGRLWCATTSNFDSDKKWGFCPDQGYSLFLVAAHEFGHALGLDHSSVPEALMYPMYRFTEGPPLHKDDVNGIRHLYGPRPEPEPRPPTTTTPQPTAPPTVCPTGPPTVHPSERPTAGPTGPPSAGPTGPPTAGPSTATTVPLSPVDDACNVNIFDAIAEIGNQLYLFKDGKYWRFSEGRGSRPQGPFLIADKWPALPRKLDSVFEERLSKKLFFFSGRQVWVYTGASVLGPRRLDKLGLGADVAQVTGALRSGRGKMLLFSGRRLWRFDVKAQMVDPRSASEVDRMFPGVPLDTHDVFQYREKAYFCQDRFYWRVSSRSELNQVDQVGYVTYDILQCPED
MMP-8, sequence (P22894 101-467, species assumed): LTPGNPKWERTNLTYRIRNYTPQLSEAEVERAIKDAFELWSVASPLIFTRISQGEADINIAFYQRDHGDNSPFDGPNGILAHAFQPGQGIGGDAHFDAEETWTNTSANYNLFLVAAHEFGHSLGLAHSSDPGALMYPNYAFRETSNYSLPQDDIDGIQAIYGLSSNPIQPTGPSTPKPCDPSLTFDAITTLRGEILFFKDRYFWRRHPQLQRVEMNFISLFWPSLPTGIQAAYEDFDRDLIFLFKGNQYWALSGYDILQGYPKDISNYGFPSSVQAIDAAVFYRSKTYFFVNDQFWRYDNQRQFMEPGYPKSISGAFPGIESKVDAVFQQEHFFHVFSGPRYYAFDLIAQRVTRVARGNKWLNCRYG
MMP-3, sequence (P08254 100-477): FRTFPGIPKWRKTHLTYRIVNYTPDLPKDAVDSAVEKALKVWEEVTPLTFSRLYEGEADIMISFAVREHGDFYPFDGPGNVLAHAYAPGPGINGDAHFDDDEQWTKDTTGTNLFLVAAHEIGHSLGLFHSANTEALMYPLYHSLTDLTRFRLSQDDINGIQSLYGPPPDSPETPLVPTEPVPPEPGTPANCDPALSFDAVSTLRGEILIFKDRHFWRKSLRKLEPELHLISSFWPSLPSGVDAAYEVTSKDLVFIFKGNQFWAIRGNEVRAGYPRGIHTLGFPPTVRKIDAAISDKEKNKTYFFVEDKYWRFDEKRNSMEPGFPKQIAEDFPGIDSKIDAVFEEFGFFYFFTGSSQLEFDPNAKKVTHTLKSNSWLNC

Compound: O=C(NO)c1ccccc1S(=O)(=O)c1ccc(-c2ccc(N3CCOCC3)cc2)cc1 [CAM12, N-Hydroxy-2-((4′-morpholino-[1,1′-biphenyl]-4-yl)sulfonyl) benzamide]
- IC50 (MMP-9): 2300 nM
- IC50 (MMP-3): 12000 nM
- MMP-13 mRNA, CAM12 IP versus controls ([1]; WT mice, CM 2D and 5D, Dex topical treatment): higher MMP-13 mRNA transcripts
- IL-1β, IL-6, MMP-9 mRNA, CAM12 IP versus controls ([1]; WT mice, CM 2D and 5D, both Dex and BSS topical treatment): higher expression of IL-1β, IL-6, MMP-9
- MMP-1, -3 mRNA, CAM12 IP versus controls ([1]; WT mice, CM 5D, Dex topical treatment): higher levels of MMP-1, -3
- IC50 (MMP-1): 16700 nM
- IC50 (MMP-14 cd): 1140 nM
- IC50 (MMP-2): 24 nM
- corneal opacity score, topical Dex + CAM12 IP versus Dex + vehicle IP (corneal opacity [2]; WT mice, 100 nM CAM12 IP QD): higher corneal opacity score
- IC50 (MMP-8): 57 nM
- expression of inflammatory cytokines and MMPs in the cornea [3]: no change in expression of inflammatory cytokines and MMPs
- re-epithelialization, topical Dex + CAM12 IP versus Dex + vehicle IP ([4]; WT mice, 100 nM CAM12 IP QD): delayed re epithelialization

Compound: C[C@@H]1C[C@H]2[C@@H]3CCC4=CC(=O)C=C[C@]4(C)[C@@]3(F)[C@@H](O)C[C@]2(C)[C@@]1(O)C(=O)CO [Dex, Dexamethasone]
- cytokine and MMP transcripts, Dex versus BSS ([1]; MMP-8KO mice, CM 2D post injury): decreased IL-6, MMP-3, and MMP-9
- cytokine and MMP transcripts, Dex versus BSS ([1]; MMP-8KO mice, CM 5D post injury): decreased MMP-9 and MMP-13
- IL-1β and CXCL1 expression ([1]; MMP-8KO mice, CM, topical Dex, in contrast to WT): lost its ability to decrease IL-1β and CXCL1 expression
- cytokine and MMP transcripts, Dex versus BSS ([1]; WT mice, CM 2D post injury): significantly decreased IL-6, MMPs -3, -9, -13 transcripts
- cytokine and MMP transcripts, Dex versus BSS ([1]; WT mice, CM 5D): significantly decreased IL-6 and MMP-3
- influx of Gr-1+ cells into the wound site [5]: inhibited the influx
- corneal opacity score, Dex-treated MMP-8KO versus Dex treated WT (corneal opacity [2]; 5 days post injury): significantly higher corneal opacity scores
- corneal opacity, topical Dex + vehicle IP versus topical BSS + vehicle IP (corneal opacity [2]; WT mice): significantly lower corneal opacity
- corneal opacity score, Dex versus BSS (corneal opacity [6]): significantly lower opacity scores
- wound healing ([4]; Dex treated MMP-8KO mice): 40%
- wound healing ([4]; Dex treated WT mice): 75%
